Experimental data published in patent US9296774B2, “Halogenated dideoxy sugar derivates, preparation method and application thereof” (Suzhou Harmony Biotechnology Co., Ltd., priority 2009, dated 2016).
“Also recorded” adds a separate entry of the source.

Columns and labels:
mouse [1] = test: Acute toxicity (LD50), mouse ip injection; settings: mouse ip after injection
mouse [2] = test: Acute toxicity (LD50), mouse ig
05-732 human bone tumor = test: Mouse transplant tumor, 05-732 human osteosarcoma; settings: for inhibitive effect on mouse transplant tumor (in words): 05-732 human bone tumor, 125 mg/kg
Experimental: (§1) Saline solution was used as a control. The positive group CTX was treated with the compounds at an amount of 0.4 ml/20 g. The compounds were applied once a day for consecutive 7 days.

[3] = test system: MX-1 human breast cancer cells; test: Mouse transplant tumor, MX-1 human breast cancer; settings: for inhibitive effect on mouse transplant tumor (in words): 125 mg/kg;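 as to all read-outs here: mice given saline served as the control group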
Experimental: as §1

[4] = test system: anaplastic thyroid carcinoma TA-K cells; test: Mouse transplant tumor, human anaplastic thyroid carcinoma TA-K; settings: for inhibitive effect on mouse transplant tumor (in words): anaplastic thyroid carcinoma TA-K, 125 mg/kg;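 as to all read-outs here: Tumor-bearing mice compared against a saline-treated control group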
Experimental: as §1

B16 malignant melanoma = test: Mouse transplant tumor, B16 malignant melanoma; settings: for inhibitive effect on mouse transplant tumor (in words): B16 malignant melanoma, 125 mg/kg
Experimental: as §1

in vivo [5] = settings: mouse, ip
[6] = test system: MGC human stomach cancer cells; test: Mouse transplant tumor, MGC human stomach cancer; settings: for inhibitive effect on mouse transplant tumor (in words): 125 mg/kg;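 as to all read-outs here: control group received saline vehicle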
Experimental: Saline solution was used as a control. The positive group CTX was treated with the compounds at an amount of 0.4 ml/20 g. The compounds were applied once a day for consecutive 7 days. The animals were then compensated.

[7] = test system: AsPc human pancreatic cancer cells; test: Mouse transplant tumor, AsPc human pancreatic cancer; settings: for inhibitive effect on mouse transplant tumor (in words): 125 mg/kg;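 as to all read-outs here: Saline-treated mice served as the control group, with a CTX-treated group as positive reference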
Experimental: as §1

in vivo [8] = settings: mouse, po
[9] = 05-732 human osteosarcoma, 125 mg/kg once a day for 7 days
[10] = 125 mg/kg once a day for 7 days
[11] = 125 mg/kg once a day for 7 days, animal weight at end
[12] = 125 mg/kg once a day for 7 days, animal weight at start
[13] = human anaplastic thyroid carcinoma TA-K, 125 mg/kg once a day for 7 days
[14] = B16, 125 mg/kg once a day for 7 days

Compound	LD50 (mouse [1]) [mg/kg]	LD50 (mouse [2]) [mg/kg]	inhibitive effect on mouse transplant tumor (in words) (05-732 human bone tumor)	Inhibtion of tumor growth (05-732 human bone tumor; [9])	Weight of tumor (05-732 human bone tumor; [9])	inhibitive effect on mouse transplant tumor (in words) [3]	Inhibition of tumor growth [3, 10]	Weight of tumor [3, 10]	inhibitive effect on mouse transplant tumor (in words) [4]	Inhibition of tumor growth [4, 13]	Weight of tumor [4, 13]	Inhibition of tumor growth (%) (B16 malignant melanoma; [14])	Weight of tumor (B16 malignant melanoma; [14])	inhibitive effect on mouse transplant tumor (in words) (B16 malignant melanoma)	LD50 (in vivo [5]) [mg/kg]	inhibitive effect on mouse transplant tumor (in words) [6]	Inhibition of tumor growth [6, 10]	Weight of tumor [6, 10]	inhibitive effect on mouse transplant tumor (in words) [7]	LD50 (in vivo [8]) [mg/kg]	other results
CC(=O)OCC1OC(OP(=O)(NCCCl)NCCCl)C(Br)CC1OC(C)=O (single isomer, unassigned) [Compound 8]	301.4	2017.5	–	–	–	–	–	–	–	–	–	–	–	–	–	–	–	–	–	–	–
CC(=O)OCC1OC(OP(=O)(NCCCl)NCCCl)C(Br)CC1OC(C)=O (single isomer, unassigned) [Compound 7]	–	–	good inhibitive effect; also recorded: significant effect	81.3	0.5	good inhibitive effect; also recorded: significant effect	80.8	0.5	good inhibitive effect; also recorded: significant effect	84.2	0.4	80.4	0.5	good inhibitive effect; also recorded: significant effect	316	good inhibitive effect; also recorded: significant effect	83.8	0.4	good inhibitive effect; also recorded: significant effect	2220	weight end (05-732 human bone tumor; 05-732 human osteosarcoma, 125 mg/kg once a day for 7 days, animal weight at end): 18.4; weight start (05-732 human bone tumor; 05-732 human osteosarcoma, 125 mg/kg once a day for 7 days, animal weight at start): 18.3; weight end [3, 11]: 18.4; weight start [3, 12]: 18.3; weight end ([4]; human anaplastic thyroid carcinoma TA-K, 125 mg/kg once a day for 7 days, animal weight at end): 18.4; weight start ([4]; human anaplastic thyroid carcinoma TA-K, 125 mg/kg once a day for 7 days, animal weight at start): 18.3; weight end (B16 malignant melanoma; B16, 125 mg/kg once a day for 7 days, body weight at end): 18.4; weight start (B16 malignant melanoma; B16, 125 mg/kg once a day for 7 days, body weight at start): 18.3; weight end [6, 11]: 18.4; weight start [6, 12]: 18.3; Inhibition of tumor growth [7, 10]: 73.6; Weight of tumor [7, 10]: 0.6; weight end [7, 11]: 18.4; weight start [7, 12]: 18.3
CC(=O)OCC1OC(OP(=O)(NCCCl)NCCCl)CC(Br)C1OC(C)=O (single isomer, unassigned) [Compound 6]	307.1	2205.8	–	–	–	–	–	–	–	–	–	–	–	–	–	–	–	–	–	–	–
COc1cc(C2c3cc4c(cc3C(C3OC(COC(C)=O)C(OC(C)=O)CC3Br)C3COC(=O)C23)OCO4)cc(OC)c1O (stereo not drawn) [Compound 14]	–	–	good inhibitive effect; also recorded: significant effect	72.3	0.8	good inhibitive effect; also recorded: significant effect	76.3	0.6	good inhibitive effect; also recorded: significant effect	76.2	0.6	76.2	0.6	good inhibitive effect; also recorded: significant effect	300	good inhibitive effect; also recorded: significant effect	71.9	0.7	good inhibitive effect; also recorded: significant effect	1970	Inhibition of tumor growth [7, 10]: 75.2; Weight of tumor [7, 10]: 0.3
CC(=O)OCC1OC(Br)C(Br)CC1OC(C)=O (single isomer, unassigned) [Compound 4]	356.2	2389.2	–	–	–	–	–	–	–	–	–	–	–	–	–	–	–	–	–	–	–
COc1cc(C2c3cc4c(cc3C(C3CC(Br)C(OC(C)=O)C(COC(C)=O)O3)C3COC(=O)C23)OCO4)cc(OC)c1O (stereo not drawn) [Compound 13]	–	–	good inhibitive effect	–	–	good inhibitive effect	–	–	good inhibitive effect	–	–	–	–	good inhibitive effect	299	good inhibitive effect	–	–	good inhibitive effect	1830	–
